According to US4018801A, “Substituted oxirane compounds” (The Dow Chemical Company, priority 1975, dated 1977):

Columns and labels:
Test in all cases: Pre-emergent control of seed germination, soil drench
Format in all cases: in vivo
Yellow Foxtail = details: Yellow Foxtail, about 2 weeks
Procedure, shortened: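 Compound formulated with Span 85/Tween 80 in acetone, dispersed in water, and applied as a soil drench to seeded beds at 1.0, 2.0 and 5.0 lb/acre (about 1.6, 3.2, 8.0 ppm soil); lower concentrations also tested. Germination control scored versus untreated checks after about 2 weeks.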

Corn = details: about 2 weeks
Source text: (§1) Four parts by weight of the compound, 0.08 part of sorbitan trioleate (Span 85), and 0.02 part of a sorbitan monooleate polyoxyethylene derivative (Tween 80) are dipersed in 40 milliliters of acetone to produce a concentrate composition in the form of a water-dispersible liquid containing the predetermined oxirane compound as the sole active agent.
(§2) A portion of each of these concentrate compositions were separately dispersed in portions of water to provide aqueous compositions, containing 0.44 pound of the oxirane compound per 100 gallons of ultimate aqueous mixture.
(§3) The aqueous compositions were then employed for the treatment of seed beds of good agricultural soil which had been prepared and seeded with the seeds of various grass species and broadleaf plants. The grass species included white winter wheat, cultured rice, pigweeds, crabgrass, cheat grass, wild oats, Johnson grass, barnyard grass and yellow foxtail; and the broadleaf plants included corn. In the treating operations, a predetermined quantity of each of the compositions was applied to separate seedbeds as a soil drench at a rate of about 0.43 acre inch of aqueous composition per acre. The quantities were controlled to supply a substantial uniform dosage in a seedbed equivalent to 1.0, 2.0 and 5.0 pounds of the oxirane compound per acre. These dosages correspond, respectively, to a concentration, within the soil depth penetrated of about 1.6, 3.2 and 8.0 parts by weight of the oxirane compound per million parts by weight of soil. Other seedbeds were similarly seeded with the named plant species but were left untreated to serve as checks.
After about 2 weeks the seedbeds were examined to ascertain what control of the growth of seeds had been obtained. […]
(§4) An aqueous composition containing 2-(α,α,α -trifluoro-m-tolyl)-2-(2,2,2-trichloroethyl)oxirane was prepared as described in Example 32. The composition was then employed according to the procedures of Example 32 except that lower concentrations of the oxirane compound were employed in the composition.
(§5) The percent control of the various plant species at the employed dosage rate of the 2-(α,α,α-trifluoro-m-tolyl)- 2-(2,2,2-trichloroethyl) supplied by the composition is set forth in the following Table IV.

Cultured Rice = details: about 2 weeks
Source text: as §1, §2, §3
(§6) After about 2 weeks the seedbeds were examined to ascertain what control of the growth of seeds had been obtained.
as §4, §5

White Winter Wheat = details: about 2 weeks
Source text: as §1, §2, §3, §6, §4, §5

Crabgrass = details: for Percent Pre-Emergent Control of Seed Germination: Crabgrass, about 2 weeks; for % Control: pre-emergence, Crab Grass
Johnson Grass = details: Johnson Grass; for Percent Pre-Emergent Control of Seed Germination: about 2 weeks; for % Control: pre-emergence

Structure (SMILES): ClC(Cl)(Cl)CC1(c2cccc(Br)c2)CO1 (stereo not drawn) [Example 3, 2-(m-bromophenyl)-2-(2,2,2-trichloroethyl)oxirane]
- Percent Pre-Emergent Control of Seed Germination (Yellow Foxtail; 1.0 pounds per surface acre): 100%
- Percent Pre-Emergent Control of Seed Germination (Yellow Foxtail; 2.0 pounds per surface acre): 100%
- Percent Pre-Emergent Control of Seed Germination (Yellow Foxtail; 5.0 pounds per surface acre): 95%
- Percent Pre-Emergent Control of Seed Germination (Corn; 1.0 pounds per surface acre): 30%
- Percent Pre-Emergent Control of Seed Germination (Corn; 2.0 pounds per surface acre): 95%
- Percent Pre-Emergent Control of Seed Germination (Corn; 5.0 pounds per surface acre): 95%
- Percent Pre-Emergent Control of Seed Germination (Cultured Rice; 2.0 pounds per surface acre): 100%
- Percent Pre-Emergent Control of Seed Germination (Cultured Rice; 5.0 pounds per surface acre): 100%
- Percent Pre-Emergent Control of Seed Germination (White Winter Wheat; 1.0 pounds per surface acre): 100%
- Percent Pre-Emergent Control of Seed Germination (White Winter Wheat; 2.0 pounds per surface acre): 100%
- Percent Pre-Emergent Control of Seed Germination (White Winter Wheat; 5.0 pounds per surface acre): 100%
- Percent Pre-Emergent Control of Seed Germination (Crabgrass; 1.0 pounds per surface acre): 0%
- Percent Pre-Emergent Control of Seed Germination (Crabgrass; 2.0 pounds per surface acre): 100%
- Percent Pre-Emergent Control of Seed Germination (Crabgrass; 5.0 pounds per surface acre): 100%
- % Control (Crabgrass; 1/8 Lb/Acre): 95%
- % Control (Crabgrass; 1/16 Lb/Acre): 70%
- Percent Pre-Emergent Control of Seed Germination (Johnson Grass; 1.0 pounds per surface acre): 95%
- Percent Pre-Emergent Control of Seed Germination (Johnson Grass; 2.0 pounds per surface acre): 95%
- Percent Pre-Emergent Control of Seed Germination (Johnson Grass; 5.0 pounds per surface acre): 100%
- % Control (Johnson Grass; 1/8 Lb/Acre): 95%
- % Control (Johnson Grass; 1/16 Lb/Acre): 95%
